One series in a line: Plasma stability assay. It is filed as in vitro ADME. The note with it: pH 7.4, 37° C., 1 μM. As for the experimental part:
The stock solution of 10 mM of test compound in DMSO was prepared and stored at 4° C. 25 μM stock of test compound was prepared in acetonitrile: water by diluting from 10 mM stock (i.e. 2.5 μL of 10 mM stock solution was added to 997.5 μL of acetonitrile: water (50:50). The frozen plasma was thawed at room temperature and centrifuged at 1400×RCF (relative centrifugal force) 4° C., for 15 minutes. Approximately 90% of the clear supernatant fraction was transferred to a separate tube and was used for the assay.
For 0 min samples, plasma was heat inactivated at 56° C. for 45 min. To 72 μL of heat inactivated plasma, 3 μL of 25 μM test compound was added. A 25 μL aliquot of the mixture was taken and crashed with 200 μL of acetonitrile containing internal standard and further processed along with other time points. For other time point samples, final working stock of 1 μM was prepared by diluting in plasma (i.e. 8 μL of 25 μM acetonitrile:water stock was added to 192 μL of plasma). 200 μL of plasma containing the test compound was incubated for 2 hrs at 37° C. in shaker water bath with gentle shaking. 25 μL aliquot of sample at 0, 15, 30, 60 and 120 min was precipitated immediately with 200 μL of acetonitrile containing internal standard and centrifuged at 4000×RCF, 4° C. for 20 minutes. 150 μL of supernatant was diluted with 150 μL of water and analyzed on LC-MS/MS.

Series [1] concerns the target T1, recombinant human TopI (HTopI) (Homo sapiens, UniProt P11387).
T1 sequence (P11387 1-765): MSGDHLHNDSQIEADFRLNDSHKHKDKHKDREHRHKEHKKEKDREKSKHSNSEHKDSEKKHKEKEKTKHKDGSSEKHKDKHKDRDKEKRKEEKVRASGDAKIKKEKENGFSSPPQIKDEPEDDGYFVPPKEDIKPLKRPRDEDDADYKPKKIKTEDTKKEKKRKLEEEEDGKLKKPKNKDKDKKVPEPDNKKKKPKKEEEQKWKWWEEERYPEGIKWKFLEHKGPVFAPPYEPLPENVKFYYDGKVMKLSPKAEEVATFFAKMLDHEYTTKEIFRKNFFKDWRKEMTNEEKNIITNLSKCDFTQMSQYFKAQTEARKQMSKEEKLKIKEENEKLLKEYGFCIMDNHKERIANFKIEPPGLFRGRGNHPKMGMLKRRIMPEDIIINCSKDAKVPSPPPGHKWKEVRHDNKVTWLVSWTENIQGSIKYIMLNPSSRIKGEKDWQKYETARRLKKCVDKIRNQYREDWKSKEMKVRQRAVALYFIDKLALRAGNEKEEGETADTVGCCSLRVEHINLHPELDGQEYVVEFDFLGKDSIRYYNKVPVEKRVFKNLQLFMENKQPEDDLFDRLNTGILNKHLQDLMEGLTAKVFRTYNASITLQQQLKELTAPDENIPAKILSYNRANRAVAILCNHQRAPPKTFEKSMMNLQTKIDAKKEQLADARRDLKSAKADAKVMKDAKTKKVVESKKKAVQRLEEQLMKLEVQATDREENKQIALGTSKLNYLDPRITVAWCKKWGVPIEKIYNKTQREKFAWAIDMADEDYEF
Nature of the series: Gel based plasmid DNA relaxation assay with recombinant TopI (in vitro). It is filed as biochemical. The note with it: for inhibition at 10 µM: read-out: In vitro inhibition at 10 μM; for IC50: plasmid DNA relaxation. On the procedure: (§1) Human ToPI Inhibition in Plasmid DNA Relaxation Assays with Recombinant TopI (In Vitro) or MCF7 Cell Lysates (Ex Vivo)
(§2) Relaxation of supercoiled pBSSK(^+) DNA with recombinant human TopI (HTopI) at a molar ratio of 3:1 at 37° C. for 30 minutes was performed

Series [2] addresses T2, endogenous TopI from the whole cell extracts of human breast adenocarcinoma (MCF7) cell (Homo sapiens, UniProt P11387).
T2 construct: TopI enzyme in the extract is conserved in its native structure among a plethora of other cellular proteins; endogenous in cells; host or cells: MCF7 whole cell extract
T2 sequence (P11387 1-765): T1 sequence (P11387 1-765)
Nature of the series: Plasmid DNA relaxation assay with MCF7 cell lysates (ex vivo). It is filed as biochemical. The note with it: MCF7 cell lysates as source of TopI. As for the experimental part: as §1, §2
cellular extracts were utilized as a source of TopI (ex vivo) in plasmid DNA relaxation assays. TopI enzyme in the extract is conserved in its native structure among a plethora of other cellular proteins.

Series [3] is described as follows: Caco-2 permeability (21 day culture of Caco-2 cell monolayer). It is filed as in vitro ADME. The note with it: human; for recovery at 120 min, 10 μM: Caco-2, pH 7.4, Caco-2; for Papp A→B at 120 min, 10 μM / Papp B→A at 120 min, 10 μM: pH 7.4, Caco-2, 10 μM; for Papp A→B at 120 min, 10 μM: read-out: Papp Apical to Basal; for Papp B→A at 120 min, 10 μM: read-out: Papp Basal to Apical. On the procedure:
5 mL of 100 mM sodium pyruvate, 5 mL of 10× non-essential amino acids, 5 mL of penstrep were added to 100 mL of heat inactivated foetal bovine serum to 385 mL of DMEM aseptically and mixed thoroughly. One vial of Hank's balanced salt (Sigma-H1387) was dissolved in 900 mL of milli Q water; adjusted the pH to 7.4 and made up the volume to 1000 mL with the same. The solution was filter sterilized and stored at 4° C. Stock solution of test compound (10 mM) was prepared in DMSO. 10 mM stock was diluted with HBSS Buffer to a final concentration of 10 μM.
250 μL of DMEM was added to the basal compartment of 96 well multi-screen Caco-2 plate and seeded 12000 cells/well (0.16×10^6 cells/ml) in all the apical wells required and one well with only media as blank without cells, placed the Caco-2 plate in CO2 incubator at 37° C. for proliferation of cells.
On the day of assay, medium was removed and washed twice with HBSS Buffer and incubated with HBSS buffer for 30 min in an incubator and wells with TEER values >230 ohm·cm^2 were selected for the incubation. 75 μL of test compound was added to apical wells and 250 μL of HBSS buffer with 2% BSA was added to basal wells. 25 μL of basal samples was collected at 120 min and processed as stated below.
250 μL of test compound was added to basal wells and 75 μL of HBSS buffer with 2% BSA was added to apical wells. 25 μL of apical samples was collected at 120 min and processed as stated below.
Single point calibration curve in HBSS buffer with 2% BSA was used. Donor samples were diluted 1:1 with HBSS containing 2% BSA and receiver samples were diluted with 1.1 HBSS buffer and precipitated with 200 μL of acetonitrile containing internal standard and vortexed for 5 min @ 1000 rpm, centrifuged at 4000 rpm for 10 min. Finally 100 μL of supernatant was diluted with 200 μL of water and submitted for LC-MS/MS analysis.

Series [4] in a line: Lipophilicity assay (octanol/buffer Log D). Conditions: octanol / sodium phosphate buffer pH 7.4.
Description: 1.56 g NaH2PO4.2H2O was dissolved in 0.5 L water in a 1 L beaker. After adjusting pH to 7.4 using NaOH solution, the volume was made up to 1 L. Equal volumes of sodium phosphate buffer (10 mM, pH 7.4) and n-octanol were added to a separation funnel and mixed thoroughly by shaking and inverting the funnel several times. The two layers were allowed to separate for 2 days and then dispensed in two separate glass bottles. 10 mM stock solution was prepared in 100% DMSO and stored at 4° C. 500 μL of organic phase (1-octanol) was added to each well of a 2 mL deep well plate, followed by 500 μL of buffer and 15 μL of test substance was added. The plate was vortexed for 1 hr on a plate shaker at 1200 rpm. After incubation, the samples were allowed to equilibrate for 20 min and then centrifuged at 4000 rpm for 30 min for complete phase separation and analysed by LC-UV.
Log D=Log(area of octanol/area of buffer)
Mean, SD and % CV for each set of triplicates were calculated
[5] abbreviates: recombinant human TopI, at 10 μM.

Where two headings read alike, the source gives them in different places.

With Topotecan [reference compound], the “Mean % remaining at 2 hrs in human Plasma” value (shortened to “Mean % remaining at 2 hrs”) in “Plasma stability assay” is recorded as 11.5%.

For the compound `Brc1ccc2ncc(-c3nnco3)c(NCCCn3ccnc3)c2c1` [Compound 17, N-(3-(1H-imidazol-1-yl)propyl)-6-bromo-3-(1,3,4-oxadiazol-2-yl)quinolin-4-amine], in series [1] (setting [5]), the inhibition at 10 µM is 30%.

As to `CNc1c(-c2nnco2)cnc2ccc(-c3ccc(OC)cc3)cc12` [Compound 77, 6-(4-methoxyphenyl)-N-methyl-3-(1,3,4-oxadiazol-2-yl)quinolin-4-amine], in series [1] (setting [5]), the inhibition at 10 µM turned out to be 20%.

Consider `COc1ccc(-c2ccc3ncc(-c4ccc(N)nc4)c(NCCCn4ccnc4)c3c2)cc1` [Compound 73, N-(3-(1H-imidazol-1-yl)propyl)-3-(6-aminopyridin-3-yl)-6-(4-methoxyphenyl)quinolin-4-amine], for which, in series [1] (recombinant human TopI), the IC50 is 5240 nM.

For `COc1ccc(-c2ccc3ncc(-c4nnco4)c(NCCCn4ccnc4)c3c2)cc1C` [Compound 28, N-(3-(1H-imidazol-1-yl)propyl)-6-(4-methoxy-3-methylphenyl)-3-(1,3,4-oxadiazol-2-yl)quinolin-4-amine], the IC50 in series [2] came to 3000 nM; in series [1] (recombinant human TopI), 2360 nM.

As to `COc1ccc(-c2ccc3ncc(-c4nnco4)c(NCCCn4ccnc4)c3c2)c(OC)c1` [Compound 27, N-(3-(1H-imidazol-1-yl)propyl)-6-(2,4-dimethoxyphenyl)-3-(1,3,4-oxadiazol-2-yl)quinolin-4-amine], in series [1] (setting [5]), the inhibition at 10 µM was determined as 45%.

On to `Nc1ccc(-c2ccc3ncc(-c4nnco4)c(NCCCn4ccnc4)c3c2)cc1` [Compound 20, N-(3-(1H-imidazol-1-yl)propyl)-6-(4-aminophenyl)-3-(1,3,4-oxadiazol-2-yl)quinolin-4-amine], for which the recovery at 120 min, 10 μM in series [3] (read-out: A to B % Recovery) worked out at 72.7%; in series [3] (read-out: B to A % Recovery), 91.7%. In addition, the Papp A→B at 120 min, 10 μM in series [3] was 0.63 ×10⁻⁶ cm/s. The Papp B→A at 120 min, 10 μM in series [3] is 44.2 ×10⁻⁶ cm/s. In addition, the results for the IC50 in series [2] and in series [1] (recombinant human TopI) were 2250 nM and 24 nM, respectively. For the same compound, the “Log D @ pH 7.40 Mean” value in series [4] is given as 2.56. Besides, the “Mean % remaining at 2 hrs” value in “Plasma stability assay” came out at 91.32%.

Turning to `COc1ccc(-c2ccc3ncc(-c4nnc(C)o4)c(NCCN4CCOCC4)c3c2)cc1` [Compound 14, 6-(4-methoxyphenyl)-3-(5-methyl-1,3,4-oxadiazol-2-yl)-N-(2-morpholinoethyl)quinolin-4-amine], the inhibition at 10 µM in series [1] (setting [5]) stood at 50%.

In the case of `CCOC(=O)c1cnc2ccc(Br)cc2c1NCCCn1ccnc1` [Compound 15, ethyl 4-((3-(1H-imidazol-1-yl)propyl)amino)-6-bromoquinoline-3-carboxylate], the inhibition at 10 µM in series [1] (setting [5]) was found to be 30%.

Take `Cc1ccc(-c2ccc3ncc(-c4nnco4)c(NCCCn4ccnc4)c3c2)cc1` [Compound 29, N-(3-(1H-imidazol-1-yl)propyl)-3-(1,3,4-oxadiazol-2-yl)-6-p-tolylquinolin-4-amine]: the IC50 turned out to be 3750 nM in series [2] and 1060 nM in series [1] (recombinant human TopI).

For the compound `COCCc1ccc(OCC(O)CNC(C)C)cc1` (stereo not shown) [Metoprolol, reference compound], in series [4], the “Log D @ pH 7.40 Mean” value is −0.29.

As for `CC(C)[N+](C)(CCOC(=O)C1c2ccccc2Oc2ccccc21)C(C)C` [Propantheline, reference compound], in the series “Plasma stability assay”, the “Mean % remaining at 2 hrs” value is 0.00%.

Regarding `COc1ccc(-c2ccc3ncc(-c4nnc(N)o4)c(NCCCn4ccnc4)c3c2)cc1` [Compound 52, 5-(4-(3-(1H-imidazol-1-yl)propylamino)-6-(4-methoxyphenyl)quinolin-3-yl)-1,3,4-oxadiazol-2-amine], in series [1], the inhibition at 10 µM was 45%.

`CCOC(=O)c1cnc2ccc(-c3ccc(OC)cc3)cc2c1NCCCn1ccnc1` [Compound 78, ethyl 4-((3-(1H-imidazol-1-yl)propyl)amino)-6-(4-methoxyphenyl)quinoline-3-carboxylate]: in series [1] (setting [5]), the inhibition at 10 µM came out at 35%.

As to `COc1ccc(-c2ccc3ncc(-c4nnco4)c(NCCCN4CCOCC4)c3c2)cc1` [Compound 43, 6-(4-methoxyphenyl)-N-(3-morpholinopropyl)-3-(1,3,4-oxadiazol-2-yl)quinolin-4-amine], in series [3] (read-out: A to B % Recovery), the recovery at 120 min, 10 μM came out at 42.6%. Also, the recovery at 120 min, 10 μM in series [3] (read-out: B to A % Recovery) worked out at 58.5%. Further, in series [3], the Papp A→B at 120 min, 10 μM is 10.9 ×10⁻⁶ cm/s and the Papp B→A at 120 min, 10 μM is 11 ×10⁻⁶ cm/s. The “Log D @ pH 7.40 Mean” value in series [4] came out at 3.26. Further, the “Mean % remaining at 2 hrs” value in the series “Plasma stability assay” is on record as 83.38%.

With `COc1ccc(-c2ccc3ncc(-c4nnc(C)o4)c(NCCCn4ccnc4)c3c2)cc1` [Compound 54, N-(3-(1H-imidazol-1-yl)propyl)-6-(4-methoxyphenyl)-3-(5-methyl-1,3,4-oxadiazol-2-yl)quinolin-4-amine], the inhibition at 10 µM in series [1] (setting [5]) was 55%.

Take `CC(C)NCC(O)COc1cccc2ccccc12` (stereo not shown) [Propranolol, reference compound]: the recovery at 120 min, 10 μM in series [3] (read-out: A to B % Recovery) was determined as 68%. For the same compound, the recovery at 120 min, 10 μM in series [3] (read-out: B to A % Recovery) is 72.7%. In series [3], the Papp A→B at 120 min, 10 μM was 19.1 ×10⁻⁶ cm/s and the Papp B→A at 120 min, 10 μM stood at 13.3 ×10⁻⁶ cm/s.

The inhibition is how much of the control response was suppressed. Broadly, the IC50 is the concentration needed to halve the response being measured.
